Assay results taken from PubChem BioAssay (NCI).
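Following 48 hours of exposure in 96-well plates, responses at five concentrations were used to interpolate endpoints linearly. TGI denotes the concentration required for complete inhibition of growth.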

Tests used:
Assay in all cases: NCI anticancer screen, dose series, 48 h
CAKI-1 renal = tested on: CAKI-1 renal
EKVX NSCLC = tested on: EKVX NSCLC
HCC-2998 colon = tested on: HCC-2998 colon
UACC-257 melanoma = tested on: UACC-257 melanoma
KM12 colon = tested on: KM12 colon
HT29 colon = tested on: HT29 colon
DU-145 prostate = tested on: DU-145 prostate
NCI/ADR-RES ovarian = tested on: NCI/ADR-RES ovarian
MCF7 breast = tested on: MCF7 breast
HS 578T breast = tested on: HS 578T breast

SMILES	TGI (CAKI-1 renal) [µM]	TGI (EKVX NSCLC) [µM]	TGI (HCC-2998 colon) [µM]	TGI (UACC-257 melanoma) [µM]	TGI (KM12 colon) [µM]	TGI (HT29 colon) [µM]	TGI (DU-145 prostate) [µM]	TGI (NCI/ADR-RES ovarian) [µM]	TGI (MCF7 breast) [µM]	TGI (HS 578T breast) [µM]
CC1CC(C2=CC=CCS2)=Nc2ccccc2S1 (configuration not stated)	> 100	> 100	> 100	> 100	> 100	–	–	–	–	–
CC(C)/C=C1\CCC(CN2CCCC2)C1=O (configuration not stated)	10.2	40	34.2	33.9	23.1	25.6	–	–	–	–
CCOC(=O)Nc1cc2nnc(-c3ccccc3)nc2c(N)n1	> 100	> 100	> 100	> 100	> 100	25.7	–	–	–	–
Clc1ncnc(Cl)c1Cl	> 100	–	> 100	–	> 100	> 100	> 100	> 100	> 100	> 100
COc1c(C=O)c2c(c(OC)c1OC)-c1ccc(OC)c(=O)cc1[C@@H](NC(C)=O)CC2	> 30.9	> 100	34.4	> 88.8	0.632	> 8.89	> 100	–	28.4	–
CC(C)(C)NNC(=O)/C(=C/c1ccc([N+](=O)[O-])cc1)NC(=O)c1ccccc1	> 100	> 100	> 100	> 100	> 100	> 100	–	–	–	–
COC(=O)C1=C(c2ccc(OC)c(OC)c2)OC(c2ccc(OC)c(OC)c2)C1 (configuration not stated)	–	> 100	> 100	> 100	> 100	> 100	–	–	–	–
CCOc1ccccc1NC(=O)CC1C(=O)Nc2ccccc2S1=O (configuration not stated)	> 100	> 100	> 100	> 100	–	> 100	–	–	–	–
COc1cc(/C=C/c2ccncc2)cc(OC)c1OC	> 100	> 100	–	> 100	> 100	> 100	–	–	–	–
COc1ccc(C(=O)c2cc(OC)c(OC)c(OC)c2)cc1	> 88.1	> 100	> 14	> 100	> 33.1	> 100	1.58	> 100	> 100	–
O=C(O)C/C(=C\c1ccco1)C(=O)O	> 100	> 100	–	> 100	> 100	> 100	> 100	> 100	> 100	–
CS/C(=N\C(=S)N(C)C)N(c1ccccc1)c1nc(=[N+](C)C)ss1	80.2	49.3	28.9	17.3	15.8	11.6	–	–	–	–
